# Measured values published in publication PMC8398766, “Do Small Molecules Activate the TrkB Receptor in the Same Manner as BDNF? Limitations of Published TrkB Low Molecular Agonists and Screening for Novel TrkB Orthosteric Agonists” (Pharmaceuticals, 2021).
# Like-named read-outs stand apart in the source and are kept apart here.
# Tests used:
# exTrkB = target: T1, exTrkB (Homo sapiens, UniProt Q16620); test: MST binding affinity (Kd) determination; details: non-binding compounds given as 0
# T1 construct: human TrkB receptor (exTrkB), residues 1−430, was cloned into the pCMV2 expression vector; made in house; host or cells: ExpiCHO-S cells
# T1 sequence (Q16620 32-430): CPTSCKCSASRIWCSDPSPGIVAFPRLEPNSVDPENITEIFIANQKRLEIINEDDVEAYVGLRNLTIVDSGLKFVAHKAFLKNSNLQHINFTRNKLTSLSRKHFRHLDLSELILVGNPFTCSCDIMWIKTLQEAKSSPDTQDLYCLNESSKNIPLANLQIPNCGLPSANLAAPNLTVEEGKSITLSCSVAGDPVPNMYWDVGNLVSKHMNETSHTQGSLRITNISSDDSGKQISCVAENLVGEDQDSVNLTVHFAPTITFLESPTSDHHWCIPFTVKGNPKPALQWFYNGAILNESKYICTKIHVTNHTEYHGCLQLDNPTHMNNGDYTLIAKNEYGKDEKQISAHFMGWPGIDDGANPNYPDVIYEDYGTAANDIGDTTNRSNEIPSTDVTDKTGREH
# Protocol: The gene encoding the extracellular domain of the human TrkB receptor (exTrkB), residues 1−430, was cloned into the pCMV2 expression vector. Protein expression was performed in suspension-cultivated mammalian ExpiCHO-S cells using the ExpiFectamine (Thermo Scientific, Thermo Fisher Scientific, Waltham, MA, USA) transfection reagent. The secreted protein was purified using a four-step protocol. Clarified culture medium was precipitated with ammonium sulfate added to a final concentration of 1.5 M and centrifuged (235,000× g, 60 min at 4 °C). The supernatant after centrifugation was applied on a HiTrap Phenyl column (GE Healthcare, Chicago, IL, USA) equilibrated with buffer A (25 mM Tris, 1 mM DTT; pH 7.5) with 1.5 M ammonium sulfate. Bound proteins were eluted with a linear gradient of buffer A. The eluted proteins were dialyzed overnight in buffer A and loaded on a CaptoQ ImpRes column (GE Healthcare) equilibrated with buffer A with 50 mM NaCl. The bound proteins were eluted with a linear gradient of buffer A with 1 M NaCl. The fractions containing exTrkB protein were pooled, and MnCl2 and CaCl2 (1mM final concentration each) were added. The sample was purified on a HiTrap Con A 4B column (GE Healthcare) equilibrated with buffer B (25 mM Tris, 0.5 M NaCl, 1 mM MnCl2, 1 mM CaCl2; pH 7.5) and eluted with buffer C (25 mM Tris, 0.1 M NaCl, 0.4 M α-D-glucopyranoside; pH 6.5). To improve the protein recovery, buffer C flow was paused nine times during elution. The eluted fractions were concentrated and purified by size-exclusion chromatography on a HiLoad 16/600 Superdex 200 column (GE Healthcare) in buffer A with 0.5 M NaCl. The protein samples were concentrated to 1 mg/mL, and buffer was exchanged (PBS; pH 7.4). Samples were frozen in liquid nitrogen and stored at −80 °C. The protein purity was estimated by SDS–PAGE followed by Coomassie Brilliant Blue staining. The protein concentration was determined from the absorption at 280 nm using an UV NanoDrop 1000 spectrophotometer (Thermo Scientific).
# The exTrkB was labeled with a Monolith Protein Labeling Kit RED-NHS 2nd Generation (NanoTemper Technologies GmbH, Munich, Germany) according to the manufacturer’s protocol. The labelling efficiency was always determined spectrophotometrically with NanoPhotometer® NP80 (Impel) in line with the manufacturer’s recommendations. Labelled exTrkB protein was aliquoted and stored at −80 °C to avoid repeated freeze–thaw cycles. Before analysis, the exTrkB protein was thawed on ice and diluted with MST buffer (50 mM Tris pH = 8; 150 mM NaCl; 10 mM MgCl2; 0.1% Tween20) to the desired concentration.
# For primary screening (single-point MST experiments for signal amplitude determination), each of the 987 screened compounds were diluted in MST buffer + 0.1% Tween20 to a final concentration of 0.5 mM. The tested compounds were mixed with exTrkB solution (the final concentration of exTrkB was 20 nM) and centrifuged (10,000× g, 4 min at 4 °C) to eliminate protein and compound aggregates. Before loading to capillaries (Monolith NT.115 Capillaries, NanoTemper Technologies GmbH), the samples were incubated for 5 min at 25 °C and then placed into the MST apparatus (Monolith, NanoTemper Technologies GmbH). The experiments were performed using nano-blue excitation, LED light adjusted to 20% excitation power, and MST power set to medium, and the fluorescence signal during thermophoresis was detected after 30 s. Single-point MST experiments were performed by the determination of the amplitude signal between the unbound and bound state between the molecule and exTrkB, which was analyzed using the MO.Control Software version 1.6 (NanoTemper Technologies GmbH). A reference sample containing only exTrkB and the equivalent DMSO concentration (v/v) was included in each individual MST experiment. At least three technical replicates were prepared for each of the tested compounds. A binding affinity study was performed for 113 of the selected compounds at 16 concentration points. […]
# [1] = Metabolic stability in human liver microsomes; details: compared with verapamil
# TrkB receptor = target: T2, TrkB receptor (Rattus norvegicus, UniProt Q63604); test: ELFI TrkB phosphorylation, orthosteric agonist mode, SN56 T48 cell line; type: cell-based; details: TrkB phosphorylation (Tyr706), 15 min
# T2 construct: host or cells: SN56 T48 cell line
# T2 sequence (Q63604 32-821): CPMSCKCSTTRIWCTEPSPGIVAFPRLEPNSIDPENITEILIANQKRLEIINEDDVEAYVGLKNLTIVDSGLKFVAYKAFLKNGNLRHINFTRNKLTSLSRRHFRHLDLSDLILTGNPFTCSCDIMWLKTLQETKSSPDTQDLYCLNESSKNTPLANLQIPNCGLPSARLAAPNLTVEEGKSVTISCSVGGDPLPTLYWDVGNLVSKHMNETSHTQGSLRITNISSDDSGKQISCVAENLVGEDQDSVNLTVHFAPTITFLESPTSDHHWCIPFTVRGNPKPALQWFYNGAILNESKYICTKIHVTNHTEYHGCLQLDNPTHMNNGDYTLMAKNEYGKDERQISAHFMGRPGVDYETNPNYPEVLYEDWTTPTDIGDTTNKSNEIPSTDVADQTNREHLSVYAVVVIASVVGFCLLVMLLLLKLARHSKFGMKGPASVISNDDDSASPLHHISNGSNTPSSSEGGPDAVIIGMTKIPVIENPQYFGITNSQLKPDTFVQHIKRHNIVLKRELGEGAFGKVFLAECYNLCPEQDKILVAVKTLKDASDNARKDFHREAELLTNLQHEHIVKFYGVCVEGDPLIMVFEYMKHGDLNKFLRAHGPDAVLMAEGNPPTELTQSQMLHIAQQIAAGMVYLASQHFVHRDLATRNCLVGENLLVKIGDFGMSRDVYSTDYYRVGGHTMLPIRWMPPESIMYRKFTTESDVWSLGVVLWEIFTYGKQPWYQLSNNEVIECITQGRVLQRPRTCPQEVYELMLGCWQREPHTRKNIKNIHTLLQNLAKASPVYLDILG
# [2] = Metabolic stability in mouse liver microsomes; details: compared with verapamil
# physchem = details: 25 °C, pH 7.4, aqueous buffer, kinetic from dmso stock, pH 7.4, 4 h
# in vitro = details: human, Caco-2
# TrkB = details: cited from earlier work
# [3] = no orthosteric activity given as 0
Kd (exTrkB),EC50 (TrkB receptor; [3]),EC50 (TrkB receptor),Molecule,Metabolic stability in HLM (classification) [1],Metabolic stability in MLM (classification) [2],solubility kinetic at 4 h (physchem),Papp A→B at 2 h (in vitro),Papp B→A at 2 h (in vitro),"Kd (TrkB; ref Jang et al. (2010) [12], read-out: Binding affinity)","Kd (TrkB; ref Liu et al. (2014) [35], read-out: Binding affinity)","Kd (TrkB; SPR, ref [12],[35], read-out: Kd)"
2600 nM,–,–,"O=C1C(O)=C(c2c[nH]c3ccccc23)C(=O)C(O)=C1c1c[nH]c2ccccc12 [CPL503052, didemethylasterriquinone D]",–,–,–,–,–,–,–,–
5600 nM,5000 nM,–,C=CC(C)(C)c1[nH]c2ccccc2c1C1=C(O)C(=O)C(c2c[nH]c3c(CC=C(C)C)cccc23)=C(O)C1=O [DMAQ-B1],instability of this compound in the experimental system,instability of this compound in the experimental system,–,–,–,–,–,–
93 nM,4 nM,3.7 nM,"BDNF: Brain-derived neurotrophic factor, endogenous TrkB receptor agonist (protein, UniProt P23560 19-247, looked up) Neurotrophic factor BDNF …: APMKEANIRGQGGLAYPGVRTHGTLESVNGPKAGSRGLTSLADTFEHVIEELLDEDQKVRPNEENNKDADLYTSRVMLSSQVPLEPPLLFLLEEYKNYLDAANMSMRVRRHSDPARRGELSVCDSISEWVTAADKKTAVDMSGGTVTVLEKVPVSKGQLKQYFYETKCNPMGYTKEGCRGIDKRHWNSQCRTTQSYVRALTMDSKKRIGWRFIRIDTSCVCTLTIKRGR",–,–,–,–,–,–,–,1.7 nM

Molecule,Kd (exTrkB),EC50 (TrkB receptor; [3]),EC50 (TrkB receptor),Metabolic stability in HLM (classification) [1],Metabolic stability in MLM (classification) [2],solubility kinetic at 4 h (physchem),Papp A→B at 2 h (in vitro),Papp B→A at 2 h (in vitro),"Kd (TrkB; ref Jang et al. (2010) [12], read-out: Binding affinity)","Kd (TrkB; ref Liu et al. (2014) [35], read-out: Binding affinity)","Kd (TrkB; SPR, ref [12],[35], read-out: Kd)"
"O=c1cc(-c2ccccc2)oc2c(O)c(O)ccc12 [7,8-DHF, 7,8-dihydroxyflavone]",1300 nM,–,–,moderate degradation rate,moderate degradation rate,303 µM,22.8 ×10⁻⁶ cm/s,12.4 ×10⁻⁶ cm/s,15.4 nM,12.1 nM,–
